{"source": "patent US7141607B1", "about": "“Methods and compositions for treating and inhibiting retinal neovascularization” (Insite Vision Incorporated, priority 2000, dated 2006)", "origin": "cited, not measured here", "tested_on": "retinal neovascularization", "conditions": "IP injection on days 12, 14 and 16; same animal model"}
{"smiles": "CNC(=O)[C@H](Cc1ccccc1)NC(=O)[C@H](CC(C)C)[C@H](CSc1cccs1)C(=O)NO", "note": "(relative stereo) [batimastat, [2-R-[1(S*),2R*,3S*]]-N^4-hydroxy-N^1-[2-(methylamino)-2-oxo-1-(phenylmethyl)ethyl]-2-(2-methylpropyl)-3-[(2-thienylthio)methyl]butanediamide]", "values": [{"measurement": "reduction in neovascularization", "value": 72, "unit": "%"}]}
